The results in this text go back to patent US11407765B2, “Tetracyclic heteroaryl compounds” (AstraZeneca AB, priority 2018, dated 2022).

Where two headings read alike, the source gives them in different places.

Data set [1] in a line: Caco AB cell permeability. It is filed as in vitro ADME. Conditions: human, Caco-2; A to B. (Caco-2 monolayers are a common model of the intestinal barrier.)
For data set [2], the target named is T1, KRasG12C (Homo sapiens, UniProt P01116, G12C).
T1 construct: biotin (biotinylated); made in house
As to the kind of experiment: KRasG12C functional assay (HTRF, SOS-mediated nucleotide exchange / Raf RBD binding). Type of data set: biochemical. Conditions: 4 hrs incubation with GDP loaded biotinylated KRasG12C, single experiment or average of two or more. The protocol: KRasG12C Functional Assay
All enzyme and substrate solutions were prepared in assay buffer containing 20 mM HEPES (pH 7.5), 5 mM MgCl2, 150 mM NaCl, and 0.01% Tween 20. […] In a separate mix 20 nM GST-Raf Ras binding domain (GST-Raf RBD, purified in house) and 4 μg/ml anti-GST XL665 antibody (Cisbio) was prepared in assay buffer containing 50 mM Potassium Fluoride and 0.05 mg/ml BSA and equilibrated for 4 hours before adding 0.6 μM Guanosine 5′-[γ-thio]triphosphate (GTPγS, Sigma) and 0.08 μM SOS (purified in house). 5 μl of the GST-RAF RBD mix was then dispensed into each well of the assay plate. […] This is detected simultaneously via the specific binding interaction between active GTPγS KRas^G12C with GST-Raf RBD which brings the europium and XL665 into close proximity enabling an increased FRET signal to be detected on a Pherastar (BMG) plate reader equipped with the HTRF filter module. […] IC50 values were calculated from normalised dose-response response FRET data curve fitted in Genedata screener (Basel, Switzerland).
Background: TR-FRET usually uses a lanthanide donor and a delayed reading to cut background.

For data set [3], the target named is T1, KRasG12C. Description: KRasG12C mass spectrometry adducting assay. It is filed as binding. Conditions: 10 μM test compound, 4 μM GDP loaded KRasG12C, 4 hours. Here is the method: KRasG12C Mass Spectrometry Adducting Assay
Enzyme solutions were prepared in assay buffer containing 20 mM HEPES (pH 7.5), 5 mM MgCl2, and 150 mM NaCl. […] The plate was sealed before reading on a Xevo G2 QTOF (Waters) and Acquity LC system (Waters). 10 μl of sample was injected onto a Xbridge BEH300; C4; 3.5 um; 2.1×50 mm column (Waters) running a 3 minute gradient. Blank samples were run in between each test sample.
Data was analysed in Mass Lynx software (Waters), the Total ion count (TIC) trace was used and the eluted protein peak data combined. Using the combined spectrum the data was deconvoluted using MaxEnt1 method. The peak area for apo-protein KRas^G12C (APO) and KRAS+relative cmpd mass (adduct) were measured, and a percentage adduct was calculated using the following calculation: Percent adduct=100*(area of adduct peak/(sum of APO+adduct peaks)

A short description of data set [4]: In vivo pharmacokinetics in rat (oral bioavailability, clearance).
Another data set in a line: Half life in rat blood. It is filed as in vitro ADME.
Where [5] appears, read: read-out: KRasG12C functional assay IC50 value.
[6] abbreviates: KRasG12C functional assay IC50 value.

T1 sequence (P01116 1-188 isoform P01116-2 G12C): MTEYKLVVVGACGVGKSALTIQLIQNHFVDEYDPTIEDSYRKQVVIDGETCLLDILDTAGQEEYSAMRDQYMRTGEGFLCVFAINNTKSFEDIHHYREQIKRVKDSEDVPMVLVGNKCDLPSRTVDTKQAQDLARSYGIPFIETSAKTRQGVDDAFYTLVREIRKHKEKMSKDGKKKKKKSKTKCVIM

As a reminder, the Papp A→B is the apparent permeability from the apical to the basolateral side of a cell layer. Low values mean slow passage, high ones fast passage. For orientation: IC50 means the point on the concentration scale where inhibition reaches its midpoint. As to `C=CC(=O)N1C[C@H]2COc3c(Cl)c(-c4c(O)cccc4F)c(F)c4ncnc(c34)N2C[C@H]1C` (single isomer, unassigned) [Example 4], in data set [1], the Papp A→B was found to be 58 ×10⁻⁶ cm/s. Further, the IC50 on KRasG12C [2] (setting [5]) was determined as 50 nM. The “KRasG12C M. S. Binding Mean adduct %” value on KRasG12C [3] was determined as 96%. In data set [4], this molecule gave an oral bioavailability of 31%. The molecule also returned a clearance in data set [4] (in vivo) of 29 mL/min/kg.

`C=CC(=O)N1CCN2c3ncnc4c(F)c(-c5c(C)ccc6cc[nH]c(=O)c56)c(Cl)c(c34)OC[C@@H]2C1` (single isomer, unassigned) [Example 16]: at KRasG12C [2] (setting [5]), the IC50 was determined as 10 nM. Further, the “KRasG12C M. S. Binding Mean adduct %” value on KRasG12C [3] turned out to be 91%.

Take `C=CC(=O)N1CCN2c3ncnc4c(F)c(-c5c(C)ccc6cc[nH]c(=O)c56)c(Cl)c(c34)OC[C@@H]2C1` (single isomer, unassigned) [Example 17]: the IC50 at KRasG12C [2] (setting [5]) came to 373 nM. In addition, the “KRasG12C M. S. Binding Mean adduct %” value at KRasG12C [3] was 30%.

On to `C=CC(=O)N1CCN2c3ncnc4c(F)c(-c5c(C)ccc6[nH]nnc56)c(Cl)c(c34)OC[C@@H]2C1` (single isomer, unassigned) [Example 18], for which the IC50 at KRasG12C [2] (setting [5]) was 239 nM. The “KRasG12C M. S. Binding Mean adduct %” value on KRasG12C [3] is on record as 25%.

For the molecule `C=CC(=O)N1CCN2c3ncnc4c(F)c(-c5c(C)ccc6[nH]nnc56)c(Cl)c(c34)OC[C@@H]2C1` (single isomer, unassigned) [Example 19], the IC50 on KRasG12C [2] (setting [5]) was determined as 24 nM. The “KRasG12C M. S. Binding Mean adduct %” value on KRasG12C [3] came out at 94%.

Turning to `C=CC(=O)N1CCN2c3ncnc4c(F)c(-c5c(F)ccc6[nH]cnc56)c(Cl)c(c34)OC[C@@H]2C1` (single isomer, unassigned) [Example 20], the IC50 on KRasG12C [2] (setting [5]) came out at 29 nM. Besides, the “KRasG12C M. S. Binding Mean adduct %” value at KRasG12C [3] was 100%.

Consider `C=CC(=O)N1CCN2c3ncnc4c(F)c(-c5c(F)ccc6[nH]ncc56)c(Cl)c(c34)OC[C@@H]2C1` (single isomer, unassigned) [Example 22], for which the IC50 on KRasG12C [2] (setting [5]) amounted to 30 nM. For the same molecule, the “KRasG12C M. S. Binding Mean adduct %” value at KRasG12C [3] is 95%.

As to `C=CC(=O)N1CCN2c3ncnc4c(F)c(-c5c(F)ccc6c5ncn6C)c(Cl)c(c34)OC[C@@H]2C1` (single isomer, unassigned) [Example 24], on KRasG12C [2] (setting [5]), the IC50 was 97 nM. Moreover, the “KRasG12C M. S. Binding Mean adduct %” value at KRasG12C [3] is recorded as 99%.

Consider `C=CC(=O)N1CCN2c3ncnc4c(F)c(-c5c(F)ccc6[nH]nnc56)c(Cl)c(c34)OC[C@@H]2C1` (single isomer, unassigned) [Example 26], for which the IC50 at KRasG12C [2] (setting [5]) was 51 nM. The “KRasG12C M. S. Binding Mean adduct %” value on KRasG12C [3] is 100%.

As for `C=CC(=O)N1CCN2c3ncnc4c(F)c(-c5c(F)ccc6cc[nH]c(=O)c56)c(Cl)c(c34)OC[C@@H]2C1` (single isomer, unassigned) [Example 28], the IC50 on KRasG12C [2] (setting [5]) amounted to 5 nM. The “KRasG12C M. S. Binding Mean adduct %” value on KRasG12C [3] amounted to 92%.

As to `Cc1ccc2[nH]ncc2c1-c1c(Cl)c2c3c(ncnc3c1F)N1CCN(C(=O)/C=C/CN(C)C)C[C@H]1CO2` (single isomer, unassigned) [Example 30], the half-maximal inhibitory concentration (IC50) at KRasG12C [2] (setting [5]) came out at 170 nM. For the same molecule, the “KRasG12C M. S. Binding Mean adduct %” value at KRasG12C [3] was found to be 94%.

As to `C=CC(=O)N1C[C@@H]2CCOc3c(Cl)c(-c4c(O)cccc4F)c(F)c4ncnc(c34)N2C[C@H]1C` (single isomer, unassigned) [Example 39], the Papp A→B in data set [1] was 72 ×10⁻⁶ cm/s. This molecule also gave an IC50 at KRasG12C [2] (setting [6]) of 3 nM. In data set [4], the “clearance (Cl)” value came to 22 mL/min/kg and the oral bioavailability stood at 75%.

At KRasG12C [2] (setting [6]), `C=CC(=O)N1C[C@@H]2CCOc3c(Cl)c(-c4c(O)cccc4F)c(F)c4ncnc(c34)N2C[C@@H]1C` (single isomer, unassigned) [Example 42] returned an IC50 of 111 nM. In addition, at KRasG12C [3], the “KRasG12C M. S. Binding Mean adduct %” value was 95.528%.

For the molecule `C=CC(=O)N1C[C@H]2COc3c(Cl)c(-c4c(O)cccc4F)c(F)c4ncnc(c34)N2C[C@@H]1C` [Example 3, 1-[(8aS,11S)-6-Chloro-4-fluoro-5-(2-fluoro-6-hydroxyphenyl)-11-methyl-8a,9,11,12-tetrahydropyrazino[2′,1′:3,4][1,4]oxazepino[5,6,7-de]quinazolin-10(8H)-yl]prop-2-en-1-one], the IC50 on KRasG12C [2] (setting [5]) turned out to be 113 nM. In addition, the “KRasG12C M. S. Binding Mean adduct %” value at KRasG12C [3] was 54%.

As for `C=CC(=O)N1CCN2c3ncnc4c(F)c(-c5cccc6cc[nH]c(=O)c56)c(Cl)c(c34)OC[C@@H]2C1` [Example 10, 8-[(8aS)-6-Chloro-4-fluoro-10-(prop-2-enoyl)-8,8a,9,10,11,12-hexahydropyrazino[2′,1′:3,4][1,4]oxazepino[5,6,7-de]quinazolin-5-yl]isoquinolin-1(2H)-one], the IC50 on KRasG12C [2] (setting [5]) stood at 68 nM. For the same molecule, the “KRasG12C M. S. Binding Mean adduct %” value on KRasG12C [3] worked out at 94%.

As for `C=CC(=O)N1CCN2c3ncnc4c(F)c(-c5n[nH]c6ccccc56)c(Cl)c(c34)OC[C@@H]2C1` [Example 11, 1-[(8aS)-6-Chloro-4-fluoro-5-(1H-indazol-3-yl)-8a,9,11,12-tetrahydropyrazino[2′,1′:3,4][1,4]oxazepino[5,6,7-de]quinazolin-10(8H)-yl]prop-2-en-1-one], at KRasG12C [2] (setting [5]), the IC50 was 201 nM. The “KRasG12C M. S. Binding Mean adduct %” value on KRasG12C [3] is listed as 96%.

Broadly, the half-life is the time in which the quantity being followed falls by half. Read a low half-life as fast loss. In general, bioavailability refers to dose-corrected exposure relative to a reference, in per cent. Lower therefore signals poor availability. The molecule `C=CC(=O)N1CCN2c3ncnc4c(F)c(-c5c(O)cccc5F)c(Cl)c(c34)OC[C@@H]2C1` [R^5 desmethyl compound, 1-((8aS)-6-chloro-4-fluoro-5-(2-fluoro-6-hydroxyphenyl)-8a,9,11,12-tetrahydropyrazino[2′,1′:3,4] [1,4]oxazepino[5,6,7-de]quinazolin-10(8H)-yl)prop-2-en-1-one, reference compound] displayed a Papp A→B in data set [1] of 5.8 ×10⁻⁶ cm/s. The molecule further came in with a half-life in the data set “Half life in rat blood” of 12 min. This molecule yielded a clearance in data set [4] (in vivo) of 962 mL/min/kg. The molecule also displayed a bioavailability in data set [4] (in vivo, po) of 0%.
